Assay results as given in PMC3720905, “A Conserved Aspartic Acid Is Important for Agonist (VUAA1) and Odorant/Tuning Receptor-Dependent Activation of the Insect Odorant Co-Receptor (Orco)” (PLoS ONE, 2013).

Key:
[1] = molecular target: T1, DmelOrco (N-myc DmelOrco) (Drosophila melanogaster, UniProt Q9VNB5, D466N); assay: Ca2+ influx (Fluo-4 fluorescence); type: cell-based
T1 construct: gene Orco; homomeric channel; ~50 kDa band
T1 sequence (Q9VNB5 1-486 D466N): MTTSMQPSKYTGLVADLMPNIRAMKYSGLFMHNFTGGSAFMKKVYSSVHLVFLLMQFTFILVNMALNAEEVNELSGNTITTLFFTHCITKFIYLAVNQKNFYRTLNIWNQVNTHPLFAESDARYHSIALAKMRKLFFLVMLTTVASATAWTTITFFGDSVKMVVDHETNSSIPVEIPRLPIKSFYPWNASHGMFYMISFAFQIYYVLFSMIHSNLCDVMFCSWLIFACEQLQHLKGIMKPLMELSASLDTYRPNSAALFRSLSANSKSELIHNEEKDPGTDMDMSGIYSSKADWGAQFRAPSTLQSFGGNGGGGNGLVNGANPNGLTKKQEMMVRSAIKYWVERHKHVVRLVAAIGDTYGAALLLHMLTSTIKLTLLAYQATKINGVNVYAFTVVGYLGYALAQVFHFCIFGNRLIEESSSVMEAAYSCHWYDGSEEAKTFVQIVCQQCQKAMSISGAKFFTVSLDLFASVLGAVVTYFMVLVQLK

[2] = molecular target: T2, DmelOrco (N-myc DmelOrco) (Drosophila melanogaster, UniProt Q9VNB5); assay: Ca2+ influx (Fluo-4 fluorescence); type: cell-based
T2 construct: gene Orco; homomeric channel; ~50 kDa band
T2 sequence (Q9VNB5 1-486): T1 sequence (Q9VNB5 1-486 D466N)

[3] = molecular target: T3, DmelOrco (N-myc DmelOrco) (Drosophila melanogaster, UniProt Q9VNB5, D357N); assay: Ca2+ influx (Fluo-4 fluorescence); type: cell-based
T3 construct: gene Orco; homomeric channel; ~50 kDa band
T3 sequence (Q9VNB5 1-486 D357N): T1 sequence (Q9VNB5 1-486 D466N)

[4] = molecular target: T4, DmelOrco (N-myc DmelOrco) (Drosophila melanogaster, UniProt Q9VNB5, D466E); assay: Ca2+ influx (Fluo-4 fluorescence); type: cell-based
T4 construct: gene Orco; homomeric channel; ~50 kDa band
T4 sequence (Q9VNB5 1-486 D466E): T1 sequence (Q9VNB5 1-486 D466N)

[5] = molecular target: T5, DmelOrco/DmelOR22a complex (Drosophila melanogaster, UniProt P81909); assay: Ca2+ influx (Fluo-4 AM fluorescence); type: cell-based
T5 construct: gene Or22a; heteromeric channel; Or22a in pCI transiently transfected into Flp-In 293 T-REX cells stably expressing N-myc DmelOrco; stoichiometry unknown; with Odorant receptor coreceptor
T5 sequence (P81909 1-397): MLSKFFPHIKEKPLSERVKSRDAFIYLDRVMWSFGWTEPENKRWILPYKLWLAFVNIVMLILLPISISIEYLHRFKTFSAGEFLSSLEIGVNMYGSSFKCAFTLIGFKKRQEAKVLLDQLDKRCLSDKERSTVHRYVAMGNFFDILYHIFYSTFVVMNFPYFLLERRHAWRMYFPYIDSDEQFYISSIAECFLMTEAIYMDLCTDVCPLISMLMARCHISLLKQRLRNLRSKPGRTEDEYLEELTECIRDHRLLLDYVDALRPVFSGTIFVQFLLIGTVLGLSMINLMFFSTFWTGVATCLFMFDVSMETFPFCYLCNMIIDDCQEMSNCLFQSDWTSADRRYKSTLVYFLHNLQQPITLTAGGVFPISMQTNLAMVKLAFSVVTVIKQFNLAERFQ
T5 sequence (Q9VNB5 1-486 partner): T1 sequence (Q9VNB5 1-486 D466N)

DmelOrco/AgOR65 complex [6] = tested on: T6, DmelOrco/AgOR65 complex; assay: Ca2+ influx (Fluo-4 AM fluorescence); type: cell-based, Anopheles gambiae; settings: log10 of molar EC50 (unit not given); heteromeric channel, odorant agonist
T6 construct: gene Or65; mixed-species heteromeric channel; AgOR65 in pCI transfected into Flp-In 293 T-REX cells stably expressing N-myc DmelOrco; with Odorant receptor coreceptor (Drosophila melanogaster)

DmelOrco/AgOR65 complex [7] = tested on: T6, DmelOrco/AgOR65 complex; assay: Ca2+ influx (Fluo-4 AM fluorescence); type: cell-based, Anopheles gambiae; settings: log10 of molar EC50 (unit not given); heteromeric channel, odorant agonist; remark: listed apart in the source
DmelOrco/AgOR65 complex [8] = tested on: T6, DmelOrco/AgOR65 complex; assay: Ca2+ influx (Fluo-4 AM fluorescence); type: cell-based, Anopheles gambiae; settings: log10 of molar EC50 (unit not given); heteromeric channel, odorant agonist; remark: listed apart in the source
[9] = molecular target: T5, DmelOrco/DmelOR22a complex; assay: Ca2+ influx (Fluo-4 AM fluorescence); type: cell-based; settings: heteromeric channel, odorant agonist; data not shown

CCc1ccc(NC(=O)CSc2nnc(-c3cccnc3)n2CC)cc1 [VUAA1, N-(4-ethylphenyl)-2-((4-ethyl-5-(3-pyridinyl)-4H-1,2,4-triazol-3-yl)thio)acetamide]
EC50 [1]: 85.1 µM
EC50 [2]: 46.8 µM
EC50 [3]: 38 µM
EC50 [4]: 21.4 µM

CCCCCC(=O)OC [methyl hexanoate]
EC50 [5]: 0.417 µM

C=CCc1ccc(O)c(OC)c1 [eugenol]
LogEC50 (DmelOrco/AgOR65 complex [6]): -6.54±0.05
LogEC50 (DmelOrco/AgOR65 complex [7]): -6.34±0.04
LogEC50 (DmelOrco/AgOR65 complex [8]): -6.75±0.03

CCCCCC(=O)OCC [ethyl hexanoate]
Ca2+ influx (Fluo-4 AM fluorescence) [9]: Essentially identical responses were observed to ethyl hexanoate
